The record followed here is US9598463B2, “Mucin hypersecretion inhibitors and methods of use” (BIOMARCK PHARMACEUTICALS, LTD., priority 2005, dated 2017).

Marks after values point to notes of the source that are not given here. Where a SMILES comes first, the peptide text is derived from it. The star is where a group is joined. Myristoyl = CCCCCCCCCCCCCC(=O)*

The nature of data set [1]: Qualitative solubility of test peptides in 0.5 N saline. It counts as physicochemical. The conditions noted are these: pH 6.5, 20° C. (table title). As to the method:
Various test peptides (1 to 5 mg each) were weighed out accurately in individual 2 mL screw cap glass vials and aliquots of 25 μL of 0.5 N saline, pH 6.5, were added at 25° C. and ambient pressure. The solubility was evaluated visually. If the test peptide dissolves completely with the first aliquot of saline, its solubility was calculated and designated as more than the calculated amount. […] Similarly, if 1.7 mg of a test peptide fails to dissolve in 1.7 mL of 0.5 N saline, its solubility is stated as <1.0 mg/mL.

Data set [2] relates to methacholine-induced mucin hypersecretion. The data set can be described thus: Methacholine-induced mucin hypersecretion in ovalbumin-sensitized mouse model of asthma, BAL mucin ELISA (Balb/C mice). To be noted: peptides at 100 μM. It counts as in vivo. The source says:
Experiments were designed to test whether or not the MANS peptide and other test peptides related thereto inhibit hypersecretion of mucin in murine airway in vivo. The ovalbumin-sensitized mouse model of allergic inflammation and asthma used in these studies was as described by Singer et al. (2004), supra. As a negative control, a control peptide containing an N-terminal myristoyl group and the same amino acids as MANS peptide but arranged in random order (i.e., the random N-terminal sequence, RNS, myristoyl-peptide 232) was tested alongside the proposed active peptides. BP2 mice, aged 6-8 wks, were immunized subcutaneously twice at weekly intervals with 1 μg of ovalbumin. After 14 days of sensitization, the animals were exposed to aerosolized ovalbumin, which causes a pronounced goblet cell hyperplasia after 72 hours. At the 72 hr time point, the secretagogue, methacholine ([…]) was delivered using a Buxco system nebulizer providing a fine aerosol for 90 seconds. Fifteen min prior to the secretagogue challenge, 50 μL of the test peptide, at 3 different concentrations (10 μM, 100 μM, or 140 μM), was administered by intratracheal route. The RNS peptide was tested at the highest dose level only (50 μL of 140 μM solution). […] Each experiment was carried out in 6 mice per point, and each set of experiments was repeated 3 times. To test strain-to-strain variations, the above experiment was repeated in Balb/C mice under similar protocol. Both stimulated and unstimulated mucin secretion, in mice treated with […] sodium acetate (data not shown), were identical to saline control. Following the methacholine challenge, the animals were sacrificed and bronchoalveolar lavage (BAL) performed on 6 animals per group for analysis of secreted mucin.
Mice were sacrificed by cervical dislocation, followed by rapid exposure of the trachea and insertion of a cannula through a small incision. Bronchoalveolar lavage (BAL) fluid was collected with 0.5 ml followed by 3×1 ml PBS containing PMSF (5 mM), EDTA (5 mM), and DTT (5 mM). BAL fluid was separated into cell-free and cell fractions via brief centrifugation prior to any analyses being performed. The cell-free supernatants were analyzed for the presence of mucin via an ELISA method using anti-mucin antibodies shown to react with mouse mucin. Specifically, a mouse anti-MUC5AC antibody that recognizes the carbohydrate portion of secreted mucin was used in these assays. Data generated from each BAL sample were normalized to total protein as determined by Bradford assay. Mucin content was expressed as the value obtained with the anti-mucin antibody minus that obtained with the non-immune control antibody. All ELISA data were statistically examined using a one-way ANOVA.
A general note: In an ELISA, binding on a coated surface is turned into a signal by an enzyme label.

One may read the solubility as the dissolved amount per volume that the medium holds. `CC(=O)N[C@@H](C)C(=O)N[C@@H](CCCCN)C(=O)NCC(=O)N[C@@H](CCC(=O)O)C(N)=O` [Ac-peptide 219-NH2] (Ac-AKGE-NH2) came in with a solubility in data set [1] greater than 200 mg/mL. In data set [1], `CCCCCCCCCCCCCC(=O)NCC(=O)N[C@@H](C)C(=O)N[C@@H](CCC(N)=O)C(=O)N[C@@H](Cc1ccccc1)C(=O)N[C@@H](CO)C(=O)N[C@@H](CCCCN)C(=O)N[C@H](C(=O)N[C@@H](C)C(=O)N[C@@H](C)C(=O)N[C@@H](CCCCN)C(=O)NCC(=O)N[C@@H](CCC(=O)O)C(=O)N[C@@H](C)C(=O)N[C@@H](C)C(=O)N[C@@H](C)C(=O)N[C@@H](CCC(=O)O)C(=O)N[C@@H](CCCNC(=N)N)C(=O)N1CCC[C@H]1C(=O)NCC(=O)N[C@@H](CCC(=O)O)C(=O)O)[C@@H](C)O` [myr-peptide 11] (Myristoyl-GAQFSKTAAKGEAAAERPGE-OH) came in with a solubility greater than 2 mg/mL. The “Mucin Secretion % control” value in data set [2] (Table III) was determined as 54 % control. On to `CCCCCCCCCCCCCC(=O)N[C@@H](CO)C(=O)N[C@@H](CCCCN)C(=O)N[C@H](C(=O)N[C@@H](C)C(=O)N[C@@H](C)C(=O)N[C@@H](CCCCN)C(=O)NCC(=O)N[C@@H](CCC(=O)O)C(=O)N[C@@H](C)C(=O)N[C@@H](C)C(=O)N[C@@H](C)C(=O)N[C@@H](CCC(=O)O)C(=O)N[C@@H](CCCNC(=N)N)C(=O)N1CCC[C@H]1C(=O)NCC(=O)N[C@@H](CCC(=O)O)C(=O)N[C@@H](C)C(=O)N[C@@H](C)C(=O)N[C@H](C(=O)N[C@@H](C)C(=O)O)C(C)C)[C@@H](C)O` [myr-peptide 15] (Myristoyl-SKTAAKGEAAAERPGEAAVA-OH), for which, in data set [1], the solubility is greater than 80 mg/mL. The “Mucin Secretion % control” value in data set [2] (Table III) is reported as 38* % control. For the compound `CCCCCCCCCCCCCC(=O)NCC(=O)N[C@@H](C)C(=O)N[C@@H](CCC(N)=O)C(=O)N[C@@H](Cc1ccccc1)C(=O)N[C@@H](CO)C(=O)N[C@@H](CCCCN)C(=O)N[C@H](C(=O)N[C@@H](C)C(=O)N[C@@H](C)C(=O)N[C@@H](CCCCN)C(=O)NCC(=O)N[C@@H](CCC(=O)O)C(=O)N[C@@H](C)C(=O)N[C@@H](C)C(=O)N[C@@H](C)C(=O)N[C@@H](CCC(=O)O)C(=O)O)[C@@H](C)O` [myr-peptide 37] (Myristoyl-GAQFSKTAAKGEAAAE-OH), the solubility in data set [1] was greater than 2 mg/mL. Further, in data set [2] (Table III), the “Mucin Secretion % control” value is 35** % control.

Turning to `CCCCCCCCCCCCCC(=O)NCC(=O)N[C@@H](C)C(=O)N[C@@H](CCC(N)=O)C(=O)N[C@@H](Cc1ccccc1)C(=O)N[C@@H](CO)C(=O)N[C@@H](CCCCN)C(=O)N[C@H](C(=O)N[C@@H](C)C(=O)N[C@@H](C)C(=O)N[C@@H](CCCCN)C(=O)NCC(=O)N[C@@H](CCC(=O)O)C(N)=O)[C@@H](C)O` [myr-peptide 79-NH2] (Myristoyl-GAQFSKTAAKGE-NH2), the solubility in data set [1] was less than 1 mg/mL. As for `CCCCCCCCCCCCCC(=O)NCC(=O)N[C@@H](C)C(=O)N[C@@H](CCC(N)=O)C(=O)N[C@@H](Cc1ccccc1)C(=O)N[C@@H](CO)C(=O)N[C@@H](CCCCN)C(=O)N[C@H](C(=O)N[C@@H](C)C(=O)N[C@@H](C)C(=O)O)[C@@H](C)O` [myr-peptide 121] (Myristoyl-GAQFSKTAA-OH), the solubility in data set [1] is less than 1 mg/mL. On to `CCCCCCCCCCCCCC(=O)NCC(=O)N[C@@H](C)C(=O)N[C@@H](CCC(N)=O)C(=O)N[C@@H](Cc1ccccc1)C(=O)N[C@@H](CO)C(=O)N[C@@H](CCCCN)C(=O)N[C@H](C(=O)N[C@@H](C)C(N)=O)[C@@H](C)O` [myr-peptide 137-NH2] (Myristoyl-GAQFSKTA-NH2), for which the “Mucin Secretion % control” value in data set [2] (Table II, 50 μL intratracheal 15 min before methacholine) amounted to 56 % control. On to `CCCCCCCCCCCCCC(=O)N[C@H](C(=O)N[C@@H](C)C(=O)N[C@@H](C)C(=O)N[C@@H](CCCCN)C(=O)NCC(=O)N[C@@H](CCC(=O)O)C(=O)N[C@@H](C)C(=O)N[C@@H](C)C(=O)O)[C@@H](C)O` [myr-peptide 143] (Myristoyl-TAAKGEAA-OH), for which the solubility in data set [1] was less than 1 mg/mL. Turning to `CCCCCCCCCCCCCC(=O)N[C@@H](C)C(=O)N[C@@H](C)C(=O)N[C@@H](CCCCN)C(=O)NCC(=O)N[C@@H](CCC(=O)O)C(=O)N[C@@H](C)C(=O)O` [myr-peptide 179] (Myristoyl-AAKGEA-OH), in data set [1], the solubility was less than 1 mg/mL.

In data set [1], `CCCCCCCCCCCCCC(=O)N[C@@H](C)C(=O)N[C@@H](CCCCN)C(=O)NCC(=O)N[C@@H](CCC(=O)O)C(=O)O` [myr-peptide 219] (Myristoyl-AKGE-OH) displayed a solubility of less than 1 mg/mL.

In turn, `CCCCCCCCCCCCCC(=O)NCC(=O)N[C@@H](C)C(=O)N[C@@H](CCC(N)=O)C(=O)N[C@@H](C)C(=O)N[C@@H](CO)C(=O)N[C@@H](CCCCN)C(=O)N[C@H](C(=O)N[C@@H](C)C(=O)N[C@@H](C)C(=O)N[C@@H](CCCCN)C(=O)NCC(=O)N[C@@H](CCC(=O)O)C(N)=O)[C@@H](C)O` [myr-peptide 237-NH2] (Myristoyl-GAQASKTAAKGE-NH2) gave a solubility in data set [1] of less than 1 mg/mL.

The compound `CCCCCCCCCCCCCC(=O)NCC(=O)N[C@@H](C)C(=O)N[C@@H](CCC(N)=O)C(=O)N[C@@H](C)C(=O)N[C@@H](CO)C(=O)N[C@@H](CCCCN)C(=O)N[C@H](C(=O)N[C@@H](C)C(=O)N[C@@H](C)C(=O)N[C@@H](CCCCN)C(=O)NCC(=O)N[C@@H](CCC(=O)O)C(=O)O)[C@@H](C)O` [myr-peptide 237] (Myristoyl-GAQASKTAAKGE-OH) yielded a solubility in data set [1] of less than 1 mg/mL. The same measure, in the same setting: to `CCCCCCCCCCCCCC(=O)NCC(=O)N[C@@H](C)C(=O)N[C@@H](CCC(=O)O)C(=O)N[C@@H](Cc1ccccc1)C(=O)N[C@@H](CO)C(=O)N[C@@H](CCCCN)C(=O)N[C@H](C(=O)N[C@@H](C)C(=O)N[C@@H](C)C(=O)N[C@@H](CCCCN)C(=O)NCC(=O)N[C@@H](CCC(=O)O)C(=O)O)[C@@H](C)O` [myr-peptide 238] (Myristoyl-GAEFSKTAAKGE-OH) belongs greater than 2 mg/mL; to Ac-AAKGEA-OH [Ac-peptide 179], greater than 150 mg/mL. In data set [1], Ac-AAQFSKTAAK-OH [Ac-peptide 242] returned a solubility greater than 100 mg/mL.

Ac-AQFSKTAAKGE-NH2 [Ac-peptide 93-NH2]: the solubility in data set [1] was greater than 90 mg/mL.

In data set [1], Ac-FSKTAAKGE-NH2 [Ac-peptide 124-NH2] had a solubility greater than 100 mg/mL.

For the compound Ac-GAAFSKTAAK-OH [Ac-peptide 243], the solubility in data set [1] was greater than 50 mg/mL.

Take Ac-GAQASKTAAK-OH [Ac-peptide 236]: the solubility in data set [1] is greater than 80 mg/mL. The same measure, in the same setting: to Ac-GAQFAKTAAK-OH [Ac-peptide 244] belongs greater than 120 mg/mL; to Ac-GAQFSATAAA-OH [Ac-peptide 249], less than 1 mg/mL. On the same count and under the same terms, to Ac-GAQFSATAAK-OH [Ac-peptide 245] belongs greater than 100 mg/mL. In turn, Ac-GAQFSKAAAK-OH [Ac-peptide 247] returned a solubility in data set [1] greater than 100 mg/mL. In data set [1], Ac-GAQFSKTA-OH [Ac-peptide 137] yielded a solubility greater than 200 mg/mL. Ac-GAQFSKTAA-OH [Ac-peptide 121] registered a solubility in data set [1] greater than 20 mg/mL. As for Ac-GAQFSKTAAA-OH [Ac-peptide 248], the solubility in data set [1] is greater than 100 mg/mL. Same read-out and setting: then Ac-GAQFSKTAAAGE-OH [Ac-peptide 239], with greater than 50 mg/mL; and Ac-GAQFSKTAAKGA-OH [Ac-peptide 241], with greater than 50 mg/mL. As to Ac-GAQFSKTAAKGE-OH [Ac-peptide 79], the solubility in data set [1] was greater than 100 mg/mL. On the same count and under the same terms, then “Ac-GAQFSKTAAKGEAAAERPGEAAVA-OH [Ac-peptide 1]”, with greater than 125 mg/mL; and “Ac-GKASQFAKTA-OH [Ac-peptide 252, reference compound]”, with less than 30 mg/mL. Same read-out and setting: to “Ac-KAATKSFQAG-OH [Ac-peptide 246, reference compound]” belongs less than 30 mg/mL; to Ac-KTAAKGE-NH2 [Ac-peptide 159-NH2], greater than 200 mg/mL. As to Ac-QFSKTAAKGE-NH2 [Ac-peptide 108-NH2], in data set [1], the solubility was greater than 150 mg/mL.

Regarding Ac-SKTAAKGE-NH2 [Ac-peptide 141-NH2], in data set [1], the solubility is greater than 200 mg/mL.

Ac-TAAKGEAA-OH [Ac-peptide 143] returned a solubility in data set [1] greater than 230 mg/mL.
